Measured values taken from publication PMC9516332 (Frontiers in Oncology, 2022).
Like-named read-outs stand apart in the source and are kept apart here.

Legend:
[1] = biological target: panel of 255 wild-type kinases (Homo sapiens, UniProt P49760); assay: Kinase panel profiling at 1 µmol/L (MSA or IMAP), percentage inhibition; format: biochemical; conditions: kinase CLK2; 1 µmol/L single concentration; read-out: %-inhibition at 1 µmol/L, CLK2
[2] = biological target: panel of 255 wild-type kinases (Homo sapiens, UniProt P45983); assay: as above; format: biochemical; conditions: kinase JNK1; 1 µmol/L single concentration; read-out: %-inhibition at 1 µmol/L, JNK1
[3] = biological target: panel of 255 wild-type kinases (Homo sapiens, UniProt P50613); assay: as above; format: biochemical; conditions: CDK7/CycH/MAT1 kinase assay; 1 µmol/L single concentration; read-out: %-inhibition CDK7/CycH/MAT1
[4] = biological target: panel of 255 wild-type kinases (Homo sapiens, UniProt Q96RG2); assay: as above; format: biochemical; conditions: PASK; 1 µmol/L single concentration; read-out: %-inhibition, PASK
[5] = biological target: panel of 255 wild-type kinases (Homo sapiens, UniProt O75582); assay: as above; format: biochemical; conditions: MSK1; 1 µmol/L single concentration; read-out: %-inhibition, MSK1
[6] = biological target: panel of 255 wild-type kinases (Homo sapiens, UniProt P22607); assay: as above; format: biochemical; conditions: kinase FGFR3; 1 µmol/L single concentration; read-out: %-inhibition at 1 µmol/L, FGFR3
[7] = biological target: panel of 255 wild-type kinases (Homo sapiens, UniProt Q9HBH9); assay: as above; format: biochemical; conditions: MNK2; 1 µmol/L single concentration; read-out: %-inhibition, MNK2
[8] = biological target: panel of 255 wild-type kinases (Homo sapiens, UniProt Q00526); assay: as above; format: biochemical; conditions: CDK3/CycE1 kinase assay; 1 µmol/L single concentration; read-out: %-inhibition CDK3/CycE1
[9] = biological target: panel of 255 wild-type kinases (Homo sapiens, UniProt Q13177); assay: as above; format: biochemical; conditions: PAK2; 1 µmol/L single concentration; read-out: %-inhibition, PAK2
134 cancer cell lines = assay: Cell viability assay (ATPlite, 72 hours), IC50 on cancer cell line panel

Cn1cnc2c(F)c(Nc3ccc(Br)cc3F)c(C(=O)NOCCO)cc21 [binimetinib]
inhibition at 1 µM [1]: -2.25% | inhibition at 1 µM [2]: -2.59% | inhibition at 1 µM [3]: -5% | inhibition at 1 µM [4]: -2.45% | inhibition at 1 µM [5]: 10% | inhibition at 1 µM [6]: 1.4% | inhibition at 1 µM [7]: -13% | inhibition at 1 µM [8]: -4.57% | inhibition at 1 µM [9]: 12% | IC50 (134 cancer cell lines; HEC-6, read-out: IC50 in cell proliferation assay, HEC-6 cell line (EGFR p.A289V)): > 31600 nM | IC50 (134 cancer cell lines; Homo sapiens, 769-P, read-out: IC50 in cell proliferation assay, cell line 769-P): 229 nM | IC50 (134 cancer cell lines; Homo sapiens, 786-0, read-out: IC50 in cell proliferation assay, cell line 786-O): > 31600 nM | IC50 (134 cancer cell lines; Homo sapiens, A 172, read-out: IC50 in cell proliferation assay, cell line A-172): 20000 nM | IC50 (134 cancer cell lines; Homo sapiens, A204, read-out: IC50 in cell proliferation assay, cell line A-204): > 31600 nM | IC50 (134 cancer cell lines; Homo sapiens, A498, read-out: IC50 in cell proliferation assay, cell line A-498): 53 nM | IC50 (134 cancer cell lines; Homo sapiens, A549, read-out: IC50 in cell proliferation assay, cell line A-549): 92 nM | IC50 (134 cancer cell lines; Homo sapiens, A704, read-out: IC50 in cell proliferation assay, cell line A-704): > 31600 nM | IC50 (134 cancer cell lines; Homo sapiens, A-375, read-out: IC50 in cell proliferation assay, cell line A-375 (BRAF p.V600E)): 86 nM | IC50 (134 cancer cell lines; Homo sapiens, A-427, read-out: IC50 in cell proliferation assay, cell line A-427): 625 nM | IC50 (134 cancer cell lines; Homo sapiens, ACHN, read-out: IC50 in cell proliferation assay, cell line ACHN): 32 nM | IC50 (134 cancer cell lines; Homo sapiens, AN3-CA, read-out: IC50 in cell proliferation assay, cell line AN3-CA (FGFR2 p.N549K)): 12800 nM | IC50 (134 cancer cell lines; Homo sapiens, ASPC1, read-out: IC50 in cell proliferation assay, cell line AsPC-1): 116 nM | IC50 (134 cancer cell lines; Homo sapiens, AU565, read-out: IC50 in cell proliferation assay, cell line AU565 (ERBB2 amplification)): > 31600 nM | IC50 (134 cancer cell lines; Homo sapiens, BT-20, read-out: IC50 in cell proliferation assay, cell line BT-20): > 31600 nM | IC50 (134 cancer cell lines; Homo sapiens, BT-474, read-out: IC50 in cell proliferation assay, cell line BT-474 (ERBB2 amplification)): > 31600 nM | IC50 (134 cancer cell lines; Homo sapiens, BT-549, read-out: IC50 in cell proliferation assay, cell line BT-549): 8680 nM | IC50 (134 cancer cell lines; Homo sapiens, BXPC-3, read-out: IC50 in cell proliferation assay, cell line BxPC-3): 24 nM | IC50 (134 cancer cell lines; Homo sapiens, C-33-A, read-out: IC50 in cell proliferation assay, cell line C-33 A): 72 nM | IC50 (134 cancer cell lines; Homo sapiens, CAL-27, read-out: IC50 in cell proliferation assay, cell line CAL-27): 117 nM | IC50 (134 cancer cell lines; Homo sapiens, CCF-STTG1, read-out: IC50 in cell proliferation assay, cell line CCF-STTG1): > 31600 nM | IC50 (134 cancer cell lines; Homo sapiens, CCRF-CEM, read-out: IC50 in cell proliferation assay, cell line CCRF-CEM): > 31600 nM | IC50 (134 cancer cell lines; Homo sapiens, COLO 205, read-out: IC50 in cell proliferation assay, cell line COLO 205 (BRAF p.V600E)): 31 nM | IC50 (134 cancer cell lines; Homo sapiens, COLO-829, read-out: IC50 in cell proliferation assay, cell line COLO 829 (BRAF p.V600E)): 125 nM | IC50 (134 cancer cell lines; Homo sapiens, DLD-1, read-out: IC50 in cell proliferation assay, cell line DLD-1): 522 nM | IC50 (134 cancer cell lines; Homo sapiens, DU-4475, read-out: IC50 in cell proliferation assay, cell line DU4475 (BRAF p.V600E)): 38 nM | IC50 (134 cancer cell lines; Homo sapiens, Daoy, read-out: IC50 in cell proliferation assay, cell line Daoy): 3980 nM | IC50 (134 cancer cell lines; Homo sapiens, DoTc2-4510, read-out: IC50 in cell proliferation assay, cell line DoTc2 4510): 113 nM | IC50 (134 cancer cell lines; Homo sapiens, EOL1, read-out: IC50 in cell proliferation assay, cell line EoL-1 (FIP1L1-PDGFRA)): 82 nM | IC50 (134 cancer cell lines; Homo sapiens, FaDu, read-out: IC50 in cell proliferation assay, cell line FaDu): 47 nM | IC50 (134 cancer cell lines; Homo sapiens, G-361, read-out: IC50 in cell proliferation assay, cell line G-361 (BRAF p.V600E)): 144 nM | IC50 (134 cancer cell lines; Homo sapiens, HCC827, read-out: IC50 in cell proliferation assay, cell line HCC827 (EGFR exon19del)): 268 nM | IC50 (134 cancer cell lines; Homo sapiens, HCC4006, read-out: IC50 in cell proliferation assay, cell line HCC4006 (EGFR exon19del)): 26600 nM | IC50 (134 cancer cell lines; Homo sapiens, HCT-15, read-out: IC50 in cell proliferation assay, cell line HCT 15): 1070 nM | IC50 (134 cancer cell lines; Homo sapiens, HCT-116, read-out: IC50 in cell proliferation assay, cell line HCT 116): 525 nM | IC50 (134 cancer cell lines; Homo sapiens, HEC-1, read-out: IC50 in cell proliferation assay, HEC-1 cell line): > 31600 nM | IC50 (134 cancer cell lines; Homo sapiens, HEC-1B, read-out: IC50 in cell proliferation assay, HEC-1-B cell line (EGFR p.A864V)): 12 nM | IC50 (134 cancer cell lines; Homo sapiens, HL-60, read-out: IC50 in cell proliferation assay, HL-60 cell line): 5 nM | IC50 (134 cancer cell lines; Homo sapiens, HT, read-out: IC50 in cell proliferation assay, HT cell line): > 31600 nM | IC50 (134 cancer cell lines; Homo sapiens, HT-1080, read-out: IC50 in cell proliferation assay, HT-1080 cell line): 27 nM | IC50 (134 cancer cell lines; Homo sapiens, Hs746T, read-out: IC50 in cell proliferation assay, Hs 746.T cell line (MET exon14skip + amplification)): 12500 nM | IC50 (134 cancer cell lines; Homo sapiens, Hs-578T, read-out: IC50 in cell proliferation assay, Hs 578T cell line): 143 nM | IC50 (134 cancer cell lines; Homo sapiens, HuTu80, read-out: IC50 in cell proliferation assay, HuTu 80 cell line): 3320 nM | IC50 (134 cancer cell lines; Homo sapiens, J82, read-out: IC50 in cell proliferation assay, J82 cell line): 200 nM | IC50 (134 cancer cell lines; Homo sapiens, Jurkat E6.1, read-out: IC50 in cell proliferation assay, Jurkat E6.1 cell line): > 31600 nM | IC50 (134 cancer cell lines; Homo sapiens, K562, read-out: IC50 in cell proliferation assay, K-562 cell line): 383 nM | IC50 (134 cancer cell lines; Homo sapiens, KATO III, read-out: IC50 in cell proliferation assay, KATO III cell line (FGFR2 amplification)): 5400 nM | IC50 (134 cancer cell lines; Homo sapiens, KG-1, read-out: IC50 in cell proliferation assay, KG-1 cell line (FGFR1OP2-FGFR1)): 404 nM | IC50 (134 cancer cell lines; Homo sapiens, KLE, read-out: IC50 in cell proliferation assay, KLE cell line): > 31600 nM | IC50 (134 cancer cell lines; Homo sapiens, KMS-11, read-out: IC50 in cell proliferation assay, KMS-11 cell line (FGFR3 p.Y373C)): > 31600 nM | IC50 (134 cancer cell lines; Homo sapiens, KU812, read-out: IC50 in cell proliferation assay, Ku812 cell line): 30 nM | IC50 (134 cancer cell lines; Homo sapiens, Kasumi 1, read-out: IC50 in cell proliferation assay, Kasumi-1 cell line (KIT p.N822K)): 192 nM | IC50 (134 cancer cell lines; Homo sapiens, LC-2-ad, read-out: IC50 in cell proliferation assay, LC-2/ad cell line (CCDC6-RET)): 84 nM | IC50 (134 cancer cell lines; Homo sapiens, LNCaP-Clone-FGC, read-out: IC50 in cell proliferation assay, LNCaP clone FGC cell line): > 31600 nM | IC50 (134 cancer cell lines; Homo sapiens, LS174T, read-out: IC50 in cell proliferation assay, LS174T cell line): 70 nM | IC50 (134 cancer cell lines; Homo sapiens, LS-411N, read-out: IC50 in cell proliferation assay, LS411N cell line (BRAF p.V600E)): 61 nM | IC50 (134 cancer cell lines; Homo sapiens, LoVo, read-out: IC50 in cell proliferation assay, LoVo cell line): 23 nM | IC50 (134 cancer cell lines; Homo sapiens, MCF7, read-out: IC50 in cell proliferation assay, MCF-7 cell line): > 31600 nM | IC50 (134 cancer cell lines; Homo sapiens, MDA-MB-231, read-out: IC50 in cell proliferation assay, MDA-MB-231 cell line): 1010 nM | IC50 (134 cancer cell lines; Homo sapiens, MDA-MB-453, read-out: IC50 in cell proliferation assay, MDA-MB-453 cell line): > 31600 nM | IC50 (134 cancer cell lines; Homo sapiens, MDA-MB-468, read-out: IC50 in cell proliferation assay, MDA-MB-468 cell line): 64 nM | IC50 (134 cancer cell lines; Homo sapiens, MG-63, read-out: IC50 in cell proliferation assay, MG-63 cell line): 2220 nM
